The structures appear in SMILES notation.

This test concerns FOXC2-expressing HMLER cells. Put plainly: Cell Titer Glo viability of FOXC2-HMLER cells (high throughput screen and 10-point response). Type of test: cell-based. To be noted: Homo sapiens; scored relative to parent compound 2; 72 hours; read-out: Activity Score, inhibition of FOXC2-expressing HMLER cells by Formula II compounds. Summed up: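 Viability after 72 h compound exposure was measured as Cell Titer Glo luminescence. FOXC2-HMLER and parental HMLER cells, 1,000 per well in MEGM medium, were dosed 1 h after plating; screening concentration was 2 μM.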

Consider `COc1cc2cc(CNc3ccc(C)cc3)c(=O)n(CC(=O)Nc3ccc(C)cc3)c2cc1OC` [Compound 2FY], for which the IC50 is more than 20 µM.
`COc1ccc(CNC(=O)Cn2c(=O)c(CNc3ccc(C)cc3)cc3ccc(OC)cc32)cc1` [Compound 2FZ]: the IC50 was more than 20 µM.
On to `COc1ccc(NCc2cc3ccc(C)cc3n(CC(=O)Nc3ccc(C)cc3C)c2=O)cc1OC` [Compound 2F], for which the IC50 is 1 to 20 µM.
With `CCc1ccc(NCc2cc3cc4c(cc3n(CC(=O)Nc3cccc(OC)c3)c2=O)OCCO4)cc1` [Compound 2GA] the figure was more than 20 µM; with `CCc1ccc(NCc2cc3ccc(OC)cc3n(CC(=O)Nc3ccc(Cl)cc3)c2=O)cc1` [Compound 2GB], more than 20 µM.
For the compound `COc1cccc(NC(=O)Cn2c(=O)c(CNc3ccc(C)cc3)cc3cc4c(cc32)OCCO4)c1` [Compound 2GC], the IC50 is more than 20 µM.
With `COc1ccc(NCc2cc3cc4c(cc3n(CC(=O)Nc3ccc(C)c(C)c3)c2=O)OCCO4)cc1` [Compound 2GD] the figure was more than 20 µM; with `COc1ccc(NC(=O)Cn2c(=O)c(CNc3ccccc3)cc3ccc(C)cc32)cc1OC` [Compound 2GE], more than 20 µM.
In the case of `COc1ccc2cc(CNc3ccc(C)cc3)c(=O)n(CC(=O)Nc3cccc(C(C)=O)c3)c2c1` [Compound 2GF], the IC50 is more than 20 µM.
As to `COc1cc2cc(CNc3ccccc3)c(=O)n(CC(=O)Nc3cc(C)cc(C)c3)c2cc1OC` [Compound 2GG], the IC50 is more than 20 µM.
For the compound `COc1ccc2cc(CNc3ccc(C)cc3)c(=O)n(CC(=O)Nc3cccc(SC)c3)c2c1` [Compound 2GH], the IC50 was more than 20 µM.
As to `CCOc1ccc(NC(=O)Cn2c(=O)c(CNc3ccccc3)cc3cc(OC)c(OC)cc32)cc1` [Compound 2GI], the IC50 was more than 20 µM.
With `Cc1ccc(NC(=O)Cn2c(=O)c(CNc3ccccc3)cc3cc4c(cc32)OCCO4)cc1` [Compound 2GJ] the figure was more than 20 µM; with `COc1ccc(NCc2cc3ccc(OC)cc3n(CC(=O)Nc3ccccc3OC)c2=O)cc1` [Compound 2GK], more than 20 µM.
Regarding `CCc1ccc(NCc2cc3ccc(OC)cc3n(CC(=O)NCCc3ccccc3)c2=O)cc1` [Compound 2GL], the IC50 was more than 20 µM.
The result for `CCOC(=O)c1ccc(NC(=O)Cn2c(=O)c(CNc3ccc(C)cc3)cc3ccc(OC)cc32)cc1` [Compound 2GM] reads more than 20 µM.
The result for `Cc1ccccc1NC(=O)Cn1c(=O)c(CNc2ccccc2)cc2cc3c(cc21)OCCO3` [Compound 2GN] reads more than 20 µM; that for `COc1ccc(NC(=O)Cn2c(=O)c(CNc3ccccc3)cc3cc4c(cc32)OCCO4)cc1` [Compound 2GO], more than 20 µM; that for `COc1ccc2cc(CNc3ccc(C)cc3)c(=O)n(CC(=O)NCc3ccc(C)cc3)c2c1` [Compound 2GP], more than 20 µM.
With `COc1ccc2cc(CNc3ccccc3)c(=O)n(CC(=O)NCc3ccc(C)cc3)c2c1` [Compound 2GQ] the figure was more than 20 µM; with `COc1ccc(NCc2cc3ccc(OC)cc3n(CC(=O)Nc3ccc(C)cc3Cl)c2=O)cc1` [Compound 2GR], more than 20 µM; with `CCc1ccc(NCc2cc3ccc(OC)cc3n(CC(=O)Nc3cc(Cl)ccc3C)c2=O)cc1` [Compound 2GS], more than 20 µM.
As for `COc1ccc2cc(CNc3ccc(C)cc3)c(=O)n(CC(=O)NCc3ccccc3)c2c1` [Compound 2GT], the IC50 was more than 20 µM.
The result for `Cc1cccc(C)c1NC(=O)Cn1c(=O)c(CNc2ccccc2)cc2cc3c(cc21)OCCO3` [Compound 2GU] reads more than 20 µM; that for `COc1cc(NC(=O)Cn2c(=O)c(CNc3ccccc3)cc3ccc(OC)cc32)cc(OC)c1` [Compound 2GV], more than 20 µM.
With `CCOc1ccc(NC(=O)Cn2c(=O)c(CNc3ccccc3)cc3cc4c(cc32)OCCO4)cc1` [Compound 2GW] the figure was more than 20 µM; with `COc1ccc2cc(CNc3ccc(C)cc3)c(=O)n(CC(=O)Nc3ccc(OC)c(Cl)c3)c2c1` [Compound 2GX], more than 20 µM.
With `COc1ccc(NCc2cc3ccc(C)cc3n(CC(=O)Nc3ccc(C)cc3)c2=O)cc1OC` [Compound 2GY] the figure was more than 20 µM.
As for `COc1ccc2cc(CNc3ccc(C)cc3)c(=O)n(CC(=O)Nc3ccccc3C)c2c1` [Compound 2GZ], the IC50 is more than 20 µM.
The result for `COc1ccc2cc(CNc3ccc(C)cc3)c(=O)n(CC(=O)Nc3ccc(F)c(F)c3)c2c1` [Compound 2G] reads 1 to 20 µM; that for `CCc1ccc(NCc2cc3ccc(OC)cc3n(CC(=O)Nc3ccccc3)c2=O)cc1` [Compound 2HA], more than 20 µM.
The result for `COc1ccc2cc(CNc3ccccc3)c(=O)n(CC(N)=O)c2c1` [Compound 2HB] reads more than 20 µM; that for `CCc1ccc(NCc2cc3ccc(OC)cc3n(CC(=O)Nc3ccccc3Cl)c2=O)cc1` [Compound 2HC], more than 20 µM; that for `COc1ccc2cc(CNc3ccc(C)cc3)c(=O)n(CC(=O)Nc3ccccc3OC)c2c1` [Compound 2HD], more than 20 µM.
The result for `COc1ccc(NCc2cc3ccc(OC)cc3n(CC(=O)Nc3cc(C)ccc3C)c2=O)cc1` [Compound 2HE] reads more than 20 µM.
Take `COc1ccc2cc(CNc3ccccc3)c(=O)n(CC(=O)Nc3ccc(OC)c(OC)c3)c2c1` [Compound 2HF]: the IC50 was more than 20 µM.
As to `CCc1ccc(NCc2cc3ccc(OC)cc3n(CC(=O)Nc3cccc(C)c3)c2=O)cc1` [Compound 2HG], the IC50 was more than 20 µM.
The result for `COc1ccc2cc(CNc3ccc(C)cc3)c(=O)n(CC(=O)NCCc3ccccc3)c2c1` [Compound 2HH] reads more than 20 µM; that for `COc1ccc(NCc2cc3cc(OC)c(OC)cc3n(CC(=O)Nc3cccc(C)c3)c2=O)cc1` [Compound 2HI], more than 20 µM.
The result for `COc1ccc2cc(CNc3ccc(C)cc3)c(=O)n(CC(=O)Nc3cccc(Cl)c3)c2c1` [Compound 2HJ] reads more than 20 µM; that for `CCc1ccc(NCc2cc3ccc(OC)cc3n(CC(=O)Nc3ccc(F)cc3)c2=O)cc1` [Compound 2HK], more than 20 µM; that for `COc1ccc2c(c1)cc(CNc1ccc(OC)c(OC)c1)c(=O)n2CC(=O)Nc1ccc(C)cc1` [Compound 2HL], more than 20 µM.
As to `COc1ccc(NC(=O)c2ccccc2NC(=O)CN2C(=O)c3ccccc3C2=O)cc1` [Compound 2HM], the IC50 is more than 20 µM.
The result for `COc1ccc2cc(CNc3ccccc3)c(=O)n(CC(=O)Nc3cc(C)cc(C)c3)c2c1` [Compound 2HN] reads more than 20 µM.
The result for `COc1ccc(NCc2cc3ccc(C)cc3n(CC(=O)Nc3ccc(C)c(C)c3)c2=O)cc1OC` [Compound 2HO] reads more than 20 µM; that for `COc1ccc(NCc2cc3cc4c(cc3n(CC(=O)Nc3c(C)cccc3C)c2=O)OCCO4)cc1` [Compound 2HP], more than 20 µM; that for `CCc1ccc(NCc2cc3ccc(OC)cc3n(CC(=O)Nc3cc(C)cc(C)c3)c2=O)cc1` [Compound 2HQ], more than 20 µM.
Consider `CCc1ccc(NCc2cc3cc(OC)c(OC)cc3n(CC(=O)Nc3ccc(C)cc3)c2=O)cc1` [Compound 2HR], for which the IC50 was more than 20 µM.
As for `COc1ccccc1NC(=O)Cn1c(=O)c(CNc2ccc(C)cc2)cc2cc(OC)c(OC)cc21` [Compound 2HS], the IC50 was more than 20 µM.
The result for `COc1ccc2cc(CNc3ccccc3)c(=O)n(CC(=O)Nc3ccccc3C)c2c1` [Compound 2HT] reads more than 20 µM; that for `COc1ccc(NC(=O)Cn2c(=O)c(CNc3ccc(OC)c(OC)c3)cc3ccc(C)cc32)cc1` [Compound 2HU], more than 20 µM.
Take `COc1ccc2cc(CNc3ccc(C)cc3)c(=O)n(CC(=O)Nc3ccc(C(C)=O)cc3)c2c1` [Compound 2HV]: the IC50 is more than 20 µM.
With `COc1ccc2cc(CNc3ccc(OC)c(OC)c3)c(=O)n(CC(=O)Nc3ccc(C)cc3)c2c1` [Compound 2HW] the figure was more than 20 µM.
The result for `COc1cccc(NC(=O)Cn2c(=O)c(CNc3ccc(C)cc3)cc3ccc(OC)cc32)c1` [Compound 2HX] reads more than 20 µM; that for `COc1cccc(CNC(=O)Cn2c(=O)c(CNc3ccc(C)cc3)cc3ccc(OC)cc32)c1` [Compound 2HY], more than 20 µM.
As to `COc1ccc2cc(CNc3ccc(C)cc3)c(=O)n(CC(=O)NCc3ccc(Cl)cc3)c2c1` [Compound 2HZ], the IC50 is more than 20 µM.
The result for `COc1ccc2cc(CNc3ccc(C)cc3)c(=O)n(CC(=O)Nc3cccc(Cl)c3C)c2c1` [Compound 2H] reads 1 to 20 µM.
Consider `COc1ccc2cc(CNc3ccccc3)c(=O)n(CC(=O)NCc3ccc(F)cc3)c2c1` [Compound 2IA], for which the IC50 was more than 20 µM.
The result for `COc1ccc(NCc2cc3cc(OC)c(OC)cc3n(CC(=O)Nc3ccccc3)c2=O)cc1` [Compound 2IB] reads more than 20 µM; that for `COc1ccc(NCc2cc3ccc(OC)cc3n(CC(=O)Nc3cccc(OC)c3)c2=O)cc1` [Compound 2IC], more than 20 µM.
The result for `COc1ccc(NCc2cc3cc4c(cc3n(CC(=O)Nc3cccc(C)c3)c2=O)OCCO4)cc1` [Compound 2ID] reads more than 20 µM; that for `COc1cc2cc(CNc3ccccc3)c(=O)n(CC(=O)Nc3cccc(Cl)c3)c2cc1OC` [Compound 2IE], more than 20 µM.
With `COc1cc(NC(=O)Cn2c(=O)c(CNc3ccccc3)cc3ccc(C)cc32)cc(OC)c1` [Compound 2IF], the IC50 is more than 20 µM.
`COc1ccc(NCc2cc3cc4c(cc3n(CC(=O)Nc3cc(C)cc(C)c3)c2=O)OCCO4)cc1` [Compound 2IG]: the IC50 is more than 20 µM.
In the case of `CCc1ccc(NCc2cc3cc(OC)c(OC)cc3n(CC(=O)Nc3cc(C)cc(C)c3)c2=O)cc1` [Compound 2IH], the IC50 was more than 20 µM.
On to `CCOc1ccc(NC(=O)Cn2c(=O)c(CNc3ccccc3)cc3ccc(OC)cc32)cc1` [Compound 2II], for which the IC50 is more than 20 µM.
As to `COc1ccc(NCc2cc3cc(C)ccc3n(CC(=O)Nc3cc(C)cc(C)c3)c2=O)cc1` [Compound 2IJ], the IC50 was more than 20 µM.
Turning to `CCc1ccc(NC(=O)Cn2c(=O)c(CNc3ccc(OC)cc3)cc3cc4c(cc32)OCCO4)cc1` [Compound 2IK], the IC50 was more than 20 µM.
For `CCc1ccc(NCc2cc3ccc(OC)cc3n(CC(=O)Nc3ccc(OC)cc3)c2=O)cc1` [Compound 2IL], the IC50 was more than 20 µM.

The values are drawn from patent publication US11759461B2, “Small molecule inhibitors of cancer stem cells and mesenchymal cancer types” (The Scripps Research Institute, priority 2017, dated 2023).
